Test results published in US4954490A, “11 β-substituted progesterone analogs” (Research Triangle Institute, priority 1988, dated 1990).

What was measured:
glucocorticoid receptor = target: T1, glucocorticoid receptor (Rattus norvegicus, UniProt P06536); assay: Relative binding affinity to glucocorticoid receptor of thymus (displacement of tritium-labeled dexamethasone); parameters: species or system rat (adrenalectomized); details: relative to dexamethasone (=100)
T1 construct: glucocorticoid receptor from thymus of adrenalectomized rats; from tissue; host or cells: thymus of adrenalectomized rats
T1 sequence (P06536 1-795): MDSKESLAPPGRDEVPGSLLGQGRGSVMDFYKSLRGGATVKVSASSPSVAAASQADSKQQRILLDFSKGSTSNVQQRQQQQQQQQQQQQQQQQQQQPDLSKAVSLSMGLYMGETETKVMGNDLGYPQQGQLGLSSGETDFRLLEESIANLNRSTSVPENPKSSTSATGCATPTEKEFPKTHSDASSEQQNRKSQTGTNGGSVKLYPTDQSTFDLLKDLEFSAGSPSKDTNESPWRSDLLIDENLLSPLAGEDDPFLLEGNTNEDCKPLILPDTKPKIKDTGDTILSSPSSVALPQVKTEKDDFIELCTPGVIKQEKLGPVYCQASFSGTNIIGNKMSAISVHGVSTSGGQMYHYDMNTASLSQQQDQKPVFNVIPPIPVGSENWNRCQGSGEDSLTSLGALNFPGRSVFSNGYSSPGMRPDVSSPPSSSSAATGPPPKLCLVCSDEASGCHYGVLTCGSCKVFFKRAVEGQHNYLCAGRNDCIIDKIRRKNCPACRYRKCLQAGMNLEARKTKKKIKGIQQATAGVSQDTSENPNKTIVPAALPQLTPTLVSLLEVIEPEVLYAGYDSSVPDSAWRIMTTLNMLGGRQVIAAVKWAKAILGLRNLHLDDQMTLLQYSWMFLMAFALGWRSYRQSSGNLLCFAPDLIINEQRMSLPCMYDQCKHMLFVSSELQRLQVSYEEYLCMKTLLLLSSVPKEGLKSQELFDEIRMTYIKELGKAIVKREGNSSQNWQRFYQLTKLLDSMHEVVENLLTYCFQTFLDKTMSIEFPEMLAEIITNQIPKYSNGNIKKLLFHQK
Procedure: (§1) The in vitro activity of the subject compounds was determined by measuring the binding affinities (RBA) of these compounds relative to progesterone for the progesterone receptor in the cytosol obtained from estrogen-primedimmature rabbit uterus and by measuring the RBA relative to dexamethasone for the glucocorticoid receptor from thymus of adrenalectomized rats. These assays were carried out by the procedures of J. R. Reel et al., Fertility and Sterility, 31, 552 (1979) (progesterone) and G. P. Chrousos et al., Endocrinology, 107, 472 (1980) (glucocorticoid).
^b Relative ability to displace tritiumlabeled dexamethasone from the
receptor of the thymus of adrenalectomized rats as compared to […]

[1] = test system: endometrial response due to subcutaneous administration of progesterone; assay: Anti-McGinty intrauterine antiprogestational test; assay type: in vivo, estrogen-primed immature female rabbits; details: intrauterine
Procedure: The antiprogestational activity of the compounds was studied after both intrauterine and oral administration. In each case the compound was tested for its ability to inhibit the endometrial response due to subcutaneous administration of progesterone to estrogen-primed immature female rabbits. The methodology used for the intrauterine test has been described by D. A. McGinty et al. See Endocrinology, 24, 829 (1939). For oral administration of test compounds, the method used was analogous to that of Clauberg. See Clauberg, Zentr. Gynakol., 54, 2757 (1930) as modified by McPhail J. Physiol. (London), 83, 145 (1935). Each active compound was characterized by a dose-related ability to block the progestational effect of simultaneously administered progesterone. When the percent inhibition was plotted versus the log of the dose, linear relationships were obtained. Linear regression analysis permitted calculation of the ED50 and ED90 values (the doses required for 50% and 90% inhibition of the progesterone effect, respectively). The actual dose which gave 90% or more inhibition is also given, although this value is probably less accurate than the calculated values which are based on the dose-response line. […] Since the intrauterine administration bypasses most of the drug-metabolizing systems of the body, especially the liver, intrinsic activity is expected to correlate reasonably well with binding activity to the receptor, according to currently held hypotheses regarding receptor binding.

progesterone receptor = target: T2, progesterone receptor (Oryctolagus cuniculus, UniProt P06186); assay: Relative binding affinity to progesterone receptor in uterine cytosol (displacement of tritium-labeled progesterone); parameters: species or system rabbit (estrogen-primed immature female)
T2 construct: in the cytosol obtained from estrogen-primedimmature rabbit uterus; from tissue; host or cells: uterine cytosol of estrogen-primed immature female rabbits
T2 sequence (P06186 1-930): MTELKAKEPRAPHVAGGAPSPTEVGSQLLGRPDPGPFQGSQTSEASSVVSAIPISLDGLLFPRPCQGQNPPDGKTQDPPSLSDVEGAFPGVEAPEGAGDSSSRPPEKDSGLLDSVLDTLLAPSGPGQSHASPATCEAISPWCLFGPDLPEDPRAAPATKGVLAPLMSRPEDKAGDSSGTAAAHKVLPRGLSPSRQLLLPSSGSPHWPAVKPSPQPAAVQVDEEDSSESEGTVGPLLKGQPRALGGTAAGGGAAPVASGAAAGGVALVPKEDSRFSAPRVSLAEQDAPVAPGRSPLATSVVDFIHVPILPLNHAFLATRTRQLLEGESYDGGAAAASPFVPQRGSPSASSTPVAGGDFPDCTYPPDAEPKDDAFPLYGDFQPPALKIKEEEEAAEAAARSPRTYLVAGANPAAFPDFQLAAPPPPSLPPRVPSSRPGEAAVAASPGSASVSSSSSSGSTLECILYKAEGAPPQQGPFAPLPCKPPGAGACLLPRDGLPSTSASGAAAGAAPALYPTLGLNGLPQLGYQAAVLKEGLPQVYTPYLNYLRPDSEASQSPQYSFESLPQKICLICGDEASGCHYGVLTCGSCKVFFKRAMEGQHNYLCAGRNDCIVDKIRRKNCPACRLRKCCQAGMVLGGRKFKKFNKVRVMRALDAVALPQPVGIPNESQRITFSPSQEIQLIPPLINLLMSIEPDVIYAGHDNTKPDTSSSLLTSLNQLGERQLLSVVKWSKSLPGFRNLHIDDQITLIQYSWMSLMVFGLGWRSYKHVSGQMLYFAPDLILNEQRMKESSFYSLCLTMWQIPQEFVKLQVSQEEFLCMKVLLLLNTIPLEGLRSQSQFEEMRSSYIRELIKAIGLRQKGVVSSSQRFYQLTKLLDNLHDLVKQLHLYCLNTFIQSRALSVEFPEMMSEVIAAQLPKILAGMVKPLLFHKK
Procedure: as §1
^a Relative ability to displace tritiumlabeled progesterone from the
receptor in uterine cytosol from estrogenprimed immature female rabbits a
compared with progesterone (=100).

[2] = test system: endometrial proliferation (McPhail Index); assay: Progestational activity, intrauterine (McGinty assay); assay type: in vivo, estrogen-primed immature female rabbits; details: right horn control 0
Procedure: In this assay estrogen-primed immature female rabbits are treated by injection of the test compound into the left horn of the uterus while the right horn is left untreated as a control. Each horn is then scored for endometrial proliferation by the McPhail Index. […] It indicates a possible need for reassessment of the current hypotheses regarding the effect of this substituent on antagonist versus agonist activity.

Cushing's syndrome = details: cited from earlier work
[3] = test system: estrogen-insensitive T47Dco human breast cancer cells; details: Horwitz 1985; cited from earlier work
[4] = comparison of mefipristone, ZK 98.299 (II), ZK 98.734 (III); cited from earlier work
[5] = from % Inhib = a + b · ln dose, results variable, data from "best run"

CC[C@@H]1C[C@H]2[C@@H]3CCC4=CC(=O)CCC4=C3[C@@H](c3ccc(N(C)C)cc3)C[C@]2(C)[C@H]1C(C)=O [Compound 19, 16α-Ethyl-118-(4-N,N-dimethylaminophenyl)-19-norpregna-4,9-diene-3,20-dione]
Glucocort. RBA (glucocorticoid receptor): 124 | ED90 (actual dose) ([1]; footnote c: no inhibition at tested dose): < 80 µg | P-RBA/G-RBA (progesterone receptor; ratio of RBA values for progesterone receptor to glucocorticoid receptor): 0.65 | Progestin RBA (progesterone receptor; relative to progesterone (=100), rabbit uterine cytosol): 80 | McPhail Index, Left Horn (Treated) ([2]; dose 2.0 μg intrauterine): 3.0 ± 0.32 | McPhail Index, Left Horn (Treated) ([2]; dose 4.0 μg intrauterine): 3.7 ± 0.12 | McPhail Index, Left Horn (Treated) ([2]; dose 8.0 μg intrauterine): 3.6 ± 0.10

CC#C[C@]1(O)CC[C@H]2[C@@H]3CCC4=CC(=O)CCC4=C3[C@@H](c3ccc(N(C)C)cc3)C[C@@]21C [RU-486, reference compound]
treatment of Cushing's syndrome (Cushing's syndrome; Nieman et al): successfully used | antiglucocorticoid activity (Cushing's syndrome; in vivo): very significant antiglucocorticoid activity | growth-inhibitory properties [3]: exhibits growth-inhibitory properties | ED90 (actual dose) ([1]; actual dose giving ≥ 90% inhibition, results variable, data from "best run"): 1.0 µg | ED50 [1, 5]: 0.28 µg | ED90 (calculated) [1, 5]: 0.87 µg

CN(C)c1ccc(C2CC3(C)C(CCC3(O)CCCO)C3CCC4=CC(=O)CCC4=C23)cc1 (stereo not drawn) [ZK 98.299]
antiglucocorticoid activity relative to antigestagenic potency (rank) [4]: intermediate position

CN(C)c1ccc([C@H]2C[C@@]3(C)[C@@H](CC[C@@]3(O)/C=C\CO)[C@@H]3CCC4=CC(=O)CCC4=C32)cc1 [ZK 98.734]
antiglucocorticoid activity relative to antigestagenic potency (rank) [4]: least active
